Active and inactive are the calls of the source.
Key:
[1] = biological target: T1, NAD-dependent protein deacylase sirtuin-5, mitochondrial (Homo sapiens, UniProt Q9NXA8); experiment: SIRT5 deacylase inhibitors, dose response, biochemical, fluorescence imaging, cherry-pick, set 6 (AID 720597)
[2] = Artemis endonuclease inhibitor potency, dose response, biochemical, fluorescence intensity (AID 720701); type: functional;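 note: Artemis endonuclease enzyme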
[3] = Shn3 3'UTR reporter inhibitors, dose response, cell-based, Clone20 osteoblasts, firefly luciferase, cherry-picked (AID 624132); type: functional;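 note: firefly luciferase luminescence from reporter carrying the Shn3 3'UTR in osteoblasts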
[4] = reduction of Shn3 3'UTR firefly luciferase signal, dose response, Schnurri-3 inhibitor project, cell-based, Clone20 osteoblasts, cherry-pick, set 2 (AID 720490); type: functional;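 note: actives lower the luminescence signal as inhibitors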
[5] = A375 melanoma cell viability loss, dose response, counter-screen for MITF inhibitor project, CellTiter-Glo luminescence, dry powder, set 4 (AID 624364); type: functional, cell-based; conditions: A-375;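 note: A375 melanoma cells are MITF independent so this is a counter screen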
[6] = A375 melanoma cell cytotoxicity, dose response, counter-screen for MITF inhibitor project, CellTiter-Glo luminescence, dry powder, set 2 (AID 624489); type: functional, cell-based; conditions: A-375;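 note: actives are compounds lowering A375 viability meaning general cytotoxicity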
[7] = T. cruzi intracellular amastigote growth inhibition, dose response, imaging, CA-I/72 strain, bovine embryo skeletal muscle, dry powder (AID 651885); type: functional, cell-based
[8] = growth inhibition of intracellular T. cruzi, dose response, cell-based, plate reader, dry powder samples (AID 651845); type: functional
[9] = T. cruzi growth inhibition in host cells, dose response, cell-based, plate reader, dry powder, set 2 (AID 652275); type: functional
Hexokinase-1 = biological target: T2, Hexokinase-1 (Homo sapiens, UniProt P19367); experiment: hexokinase 1 activators, dose response, selectivity assay for HKDC1 activator project, biochemical (AID 504762); type: functional
T2 sequence (P19367 whole entry): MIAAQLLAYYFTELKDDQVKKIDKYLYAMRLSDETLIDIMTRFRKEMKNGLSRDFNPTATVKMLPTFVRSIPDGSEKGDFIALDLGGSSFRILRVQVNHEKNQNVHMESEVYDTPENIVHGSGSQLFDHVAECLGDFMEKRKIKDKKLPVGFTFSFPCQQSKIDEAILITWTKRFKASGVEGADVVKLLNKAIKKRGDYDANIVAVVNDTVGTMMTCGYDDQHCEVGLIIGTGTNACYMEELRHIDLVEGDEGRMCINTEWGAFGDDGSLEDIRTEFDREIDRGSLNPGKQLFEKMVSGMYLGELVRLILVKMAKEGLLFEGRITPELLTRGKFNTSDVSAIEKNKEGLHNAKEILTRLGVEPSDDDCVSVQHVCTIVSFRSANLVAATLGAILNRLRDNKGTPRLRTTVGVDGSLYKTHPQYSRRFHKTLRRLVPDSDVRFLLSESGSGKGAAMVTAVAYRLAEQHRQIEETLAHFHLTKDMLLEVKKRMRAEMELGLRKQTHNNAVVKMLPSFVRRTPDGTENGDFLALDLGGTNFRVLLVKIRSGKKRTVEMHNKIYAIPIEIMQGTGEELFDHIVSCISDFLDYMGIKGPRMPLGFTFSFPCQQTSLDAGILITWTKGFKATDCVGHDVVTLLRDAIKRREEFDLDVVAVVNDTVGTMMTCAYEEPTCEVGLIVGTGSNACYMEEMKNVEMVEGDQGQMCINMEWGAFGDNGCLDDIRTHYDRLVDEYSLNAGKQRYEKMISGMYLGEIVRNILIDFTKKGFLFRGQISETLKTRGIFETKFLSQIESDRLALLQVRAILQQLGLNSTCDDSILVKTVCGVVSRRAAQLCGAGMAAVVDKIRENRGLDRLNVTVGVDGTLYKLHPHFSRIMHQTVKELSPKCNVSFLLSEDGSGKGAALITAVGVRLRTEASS

Hexokinase HKDC1 = biological target: T3, Hexokinase HKDC1 (Homo sapiens, UniProt Q2TB90); experiment: HKDC1 hexokinase activators, dose response, biochemical, W721R variant (AID 504730); type: functional
T3 sequence (Q2TB90 whole entry): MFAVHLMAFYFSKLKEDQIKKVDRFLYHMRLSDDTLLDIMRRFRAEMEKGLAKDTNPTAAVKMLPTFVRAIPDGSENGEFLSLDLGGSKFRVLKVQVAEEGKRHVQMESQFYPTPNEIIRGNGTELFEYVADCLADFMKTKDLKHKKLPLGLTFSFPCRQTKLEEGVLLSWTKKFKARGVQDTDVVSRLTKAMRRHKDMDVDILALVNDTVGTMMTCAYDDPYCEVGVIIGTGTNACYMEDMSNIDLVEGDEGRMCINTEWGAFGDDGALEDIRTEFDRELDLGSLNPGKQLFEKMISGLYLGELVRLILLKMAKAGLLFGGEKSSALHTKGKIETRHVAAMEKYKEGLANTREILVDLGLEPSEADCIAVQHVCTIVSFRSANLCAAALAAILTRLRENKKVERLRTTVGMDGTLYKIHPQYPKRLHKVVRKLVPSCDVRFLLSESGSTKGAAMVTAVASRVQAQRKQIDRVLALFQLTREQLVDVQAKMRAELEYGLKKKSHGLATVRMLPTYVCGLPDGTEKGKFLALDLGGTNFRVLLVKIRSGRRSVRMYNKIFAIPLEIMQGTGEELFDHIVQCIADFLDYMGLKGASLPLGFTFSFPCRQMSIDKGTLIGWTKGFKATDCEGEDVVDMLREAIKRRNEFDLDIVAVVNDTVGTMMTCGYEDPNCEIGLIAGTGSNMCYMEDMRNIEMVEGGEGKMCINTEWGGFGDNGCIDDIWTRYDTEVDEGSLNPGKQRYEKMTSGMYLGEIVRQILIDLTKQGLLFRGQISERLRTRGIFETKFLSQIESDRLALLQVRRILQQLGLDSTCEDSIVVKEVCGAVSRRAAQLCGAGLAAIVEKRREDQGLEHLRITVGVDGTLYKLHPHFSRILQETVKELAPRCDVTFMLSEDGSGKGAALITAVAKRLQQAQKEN

[10] = biological target: 1-phosphatidylinositol 4,5-bisphosphate phosphodiesterase gamma-1 (Homo sapiens, UniProt P19174); experiment: Counterscreen for inhibitors of phospholipase C isozymes (PLC-B3): Fluorescence-based biochemical high throughput dose response assay to identify inhibitors of phospholipase C isozymes (PLC-gamma1).
1-phosphatidylinositol 4,5-bisphosphate phosphodiesterase gamma-1, sequence (P19174 whole entry): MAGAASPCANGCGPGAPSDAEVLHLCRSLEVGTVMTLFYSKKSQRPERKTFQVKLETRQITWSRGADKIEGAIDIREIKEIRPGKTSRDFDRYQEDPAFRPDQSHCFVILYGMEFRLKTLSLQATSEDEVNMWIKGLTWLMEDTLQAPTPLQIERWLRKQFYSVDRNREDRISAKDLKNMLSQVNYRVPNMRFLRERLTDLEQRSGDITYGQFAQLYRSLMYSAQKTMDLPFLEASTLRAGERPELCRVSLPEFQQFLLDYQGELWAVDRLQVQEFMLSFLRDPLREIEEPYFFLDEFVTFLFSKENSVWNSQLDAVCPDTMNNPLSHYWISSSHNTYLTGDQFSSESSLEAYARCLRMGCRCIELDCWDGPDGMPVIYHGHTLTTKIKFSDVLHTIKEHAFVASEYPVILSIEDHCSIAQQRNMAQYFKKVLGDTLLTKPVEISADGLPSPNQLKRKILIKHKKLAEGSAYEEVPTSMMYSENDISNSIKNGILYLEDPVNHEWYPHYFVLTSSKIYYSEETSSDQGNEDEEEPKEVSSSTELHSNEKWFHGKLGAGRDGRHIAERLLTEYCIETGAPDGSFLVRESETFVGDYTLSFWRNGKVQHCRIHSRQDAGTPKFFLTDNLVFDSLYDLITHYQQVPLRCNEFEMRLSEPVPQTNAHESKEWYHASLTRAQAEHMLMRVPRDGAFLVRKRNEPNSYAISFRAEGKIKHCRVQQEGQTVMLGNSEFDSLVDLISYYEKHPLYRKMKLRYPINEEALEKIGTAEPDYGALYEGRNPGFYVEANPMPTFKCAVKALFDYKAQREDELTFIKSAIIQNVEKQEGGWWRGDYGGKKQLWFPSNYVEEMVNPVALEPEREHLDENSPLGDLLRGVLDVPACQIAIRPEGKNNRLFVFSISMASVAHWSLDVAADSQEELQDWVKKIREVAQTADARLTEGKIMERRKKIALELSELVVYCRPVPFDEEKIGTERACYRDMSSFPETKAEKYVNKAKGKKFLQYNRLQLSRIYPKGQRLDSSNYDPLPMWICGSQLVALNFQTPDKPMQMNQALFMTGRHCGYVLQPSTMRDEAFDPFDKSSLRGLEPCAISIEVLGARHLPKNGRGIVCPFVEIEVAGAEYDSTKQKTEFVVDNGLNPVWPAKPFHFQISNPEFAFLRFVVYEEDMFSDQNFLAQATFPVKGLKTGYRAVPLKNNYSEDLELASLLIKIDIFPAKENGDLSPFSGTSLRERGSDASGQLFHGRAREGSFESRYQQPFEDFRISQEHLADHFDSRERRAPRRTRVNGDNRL

Paired box protein Pax-8 = Paired box protein Pax-8 (Homo sapiens, UniProt Q06710); experiment: inhibitors of PAX8-driven TPO luciferase reporter, dose response, RMG-I cells, cherry-pick (AID 687027); type: functional, cell-based;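 note: luciferase reporter driven by Pax8 target thyroperoxidase promoter measured by SteadyGlo luminescence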
Paired box protein Pax-8, sequence (Q06710 whole entry): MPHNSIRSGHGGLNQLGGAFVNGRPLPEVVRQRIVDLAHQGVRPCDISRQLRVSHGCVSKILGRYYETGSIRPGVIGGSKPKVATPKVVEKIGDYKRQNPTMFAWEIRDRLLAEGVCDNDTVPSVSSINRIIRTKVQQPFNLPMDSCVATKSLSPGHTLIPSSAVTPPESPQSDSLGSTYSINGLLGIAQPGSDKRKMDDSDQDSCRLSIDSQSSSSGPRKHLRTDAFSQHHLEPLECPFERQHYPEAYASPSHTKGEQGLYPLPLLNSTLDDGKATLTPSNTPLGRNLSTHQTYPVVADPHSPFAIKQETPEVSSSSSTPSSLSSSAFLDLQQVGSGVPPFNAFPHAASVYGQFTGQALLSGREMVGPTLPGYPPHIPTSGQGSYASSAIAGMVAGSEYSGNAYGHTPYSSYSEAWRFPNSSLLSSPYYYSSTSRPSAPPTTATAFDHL

[11] = biological target: T4, Histone-lysine N-methyltransferase NSD2 (Homo sapiens, UniProt O96028); type: biochemical
T4 sequence (O96028 whole entry): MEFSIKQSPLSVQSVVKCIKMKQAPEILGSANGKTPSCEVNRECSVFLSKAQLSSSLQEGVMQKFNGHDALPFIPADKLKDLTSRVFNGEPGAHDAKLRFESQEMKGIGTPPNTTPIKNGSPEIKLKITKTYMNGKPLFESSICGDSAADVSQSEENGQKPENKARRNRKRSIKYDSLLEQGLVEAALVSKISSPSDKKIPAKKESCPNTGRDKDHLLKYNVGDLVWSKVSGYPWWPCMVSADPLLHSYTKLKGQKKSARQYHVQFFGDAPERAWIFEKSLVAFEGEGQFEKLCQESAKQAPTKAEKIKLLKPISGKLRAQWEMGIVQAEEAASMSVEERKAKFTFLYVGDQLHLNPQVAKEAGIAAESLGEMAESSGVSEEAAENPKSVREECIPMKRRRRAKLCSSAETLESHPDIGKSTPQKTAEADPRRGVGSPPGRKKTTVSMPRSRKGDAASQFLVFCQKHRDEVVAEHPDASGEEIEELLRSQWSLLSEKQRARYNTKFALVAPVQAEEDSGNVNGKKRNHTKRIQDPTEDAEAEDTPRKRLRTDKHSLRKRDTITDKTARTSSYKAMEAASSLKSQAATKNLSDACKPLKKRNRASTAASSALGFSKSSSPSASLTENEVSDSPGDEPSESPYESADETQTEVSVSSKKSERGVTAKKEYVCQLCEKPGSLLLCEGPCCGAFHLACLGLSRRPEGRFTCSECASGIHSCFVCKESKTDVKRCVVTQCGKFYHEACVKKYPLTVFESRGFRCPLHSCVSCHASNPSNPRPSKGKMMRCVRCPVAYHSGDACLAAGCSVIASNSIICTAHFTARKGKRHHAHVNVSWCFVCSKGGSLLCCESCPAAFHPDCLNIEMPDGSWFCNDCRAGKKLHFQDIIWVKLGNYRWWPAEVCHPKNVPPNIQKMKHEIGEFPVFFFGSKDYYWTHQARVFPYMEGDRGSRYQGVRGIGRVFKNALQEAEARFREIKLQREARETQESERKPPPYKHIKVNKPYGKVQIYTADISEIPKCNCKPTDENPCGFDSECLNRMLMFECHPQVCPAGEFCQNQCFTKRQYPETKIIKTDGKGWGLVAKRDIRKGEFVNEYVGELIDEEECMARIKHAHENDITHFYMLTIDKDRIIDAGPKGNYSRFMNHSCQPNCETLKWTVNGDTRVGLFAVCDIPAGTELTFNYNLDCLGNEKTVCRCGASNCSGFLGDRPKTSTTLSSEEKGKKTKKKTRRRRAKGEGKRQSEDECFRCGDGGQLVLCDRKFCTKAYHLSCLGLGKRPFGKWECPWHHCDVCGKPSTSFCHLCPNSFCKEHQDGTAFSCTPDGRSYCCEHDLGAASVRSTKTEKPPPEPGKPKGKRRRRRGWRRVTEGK

[12] = biological target: 1-phosphatidylinositol 4,5-bisphosphate phosphodiesterase beta-3 (Homo sapiens, UniProt Q01970); experiment: Fluorescence-based biochemical high throughput dose response assay to identify inhibitors of phospholipase C isozymes (PLC-B3).
1-phosphatidylinositol 4,5-bisphosphate phosphodiesterase beta-3, sequence (Q01970 whole entry): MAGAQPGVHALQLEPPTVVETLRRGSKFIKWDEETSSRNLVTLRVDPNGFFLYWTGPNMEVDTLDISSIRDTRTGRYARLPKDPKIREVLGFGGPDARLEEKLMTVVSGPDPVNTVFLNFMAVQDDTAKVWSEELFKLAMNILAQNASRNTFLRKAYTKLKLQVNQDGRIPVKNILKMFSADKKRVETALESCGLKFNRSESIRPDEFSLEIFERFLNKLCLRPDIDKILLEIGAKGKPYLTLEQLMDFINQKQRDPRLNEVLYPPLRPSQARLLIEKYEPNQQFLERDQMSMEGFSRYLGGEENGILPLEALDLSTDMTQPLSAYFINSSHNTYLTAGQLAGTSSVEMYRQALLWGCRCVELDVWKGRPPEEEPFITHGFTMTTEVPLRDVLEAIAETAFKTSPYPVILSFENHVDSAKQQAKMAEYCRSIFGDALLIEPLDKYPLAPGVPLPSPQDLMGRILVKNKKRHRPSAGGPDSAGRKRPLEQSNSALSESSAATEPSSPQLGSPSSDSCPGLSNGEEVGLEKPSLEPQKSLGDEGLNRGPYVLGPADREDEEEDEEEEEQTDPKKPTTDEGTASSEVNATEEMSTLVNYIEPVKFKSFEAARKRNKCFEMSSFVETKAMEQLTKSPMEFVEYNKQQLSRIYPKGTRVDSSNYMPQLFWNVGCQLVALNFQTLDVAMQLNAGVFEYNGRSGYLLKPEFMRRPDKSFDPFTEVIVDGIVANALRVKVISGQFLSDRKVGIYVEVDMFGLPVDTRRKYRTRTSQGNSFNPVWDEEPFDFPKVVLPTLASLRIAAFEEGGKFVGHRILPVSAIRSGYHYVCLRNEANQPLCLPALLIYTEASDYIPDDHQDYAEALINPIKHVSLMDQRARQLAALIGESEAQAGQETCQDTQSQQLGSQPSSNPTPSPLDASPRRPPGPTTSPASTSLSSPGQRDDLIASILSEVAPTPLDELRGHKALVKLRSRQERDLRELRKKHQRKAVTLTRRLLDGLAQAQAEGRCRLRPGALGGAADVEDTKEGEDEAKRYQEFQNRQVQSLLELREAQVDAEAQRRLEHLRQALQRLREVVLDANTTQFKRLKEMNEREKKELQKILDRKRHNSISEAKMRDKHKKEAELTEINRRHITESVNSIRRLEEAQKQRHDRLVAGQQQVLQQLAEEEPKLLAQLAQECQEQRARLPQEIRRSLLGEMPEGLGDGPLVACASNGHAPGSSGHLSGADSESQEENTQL

[13] = non-specific cell cytotoxicity, dose response, cytotoxicity control for PAX8 inhibitor project, plate reader, dry powder samples (AID 743021); type: functional, cell-based
[14] = biological target: Tyrosyl-DNA phosphodiesterase 2 (Homo sapiens, UniProt O95551); experiment: human TDP2 enzyme inhibitors, dose response, biochemical, epi absorbance, IC50 (AID 743297)
Tyrosyl-DNA phosphodiesterase 2, sequence (O95551 whole entry): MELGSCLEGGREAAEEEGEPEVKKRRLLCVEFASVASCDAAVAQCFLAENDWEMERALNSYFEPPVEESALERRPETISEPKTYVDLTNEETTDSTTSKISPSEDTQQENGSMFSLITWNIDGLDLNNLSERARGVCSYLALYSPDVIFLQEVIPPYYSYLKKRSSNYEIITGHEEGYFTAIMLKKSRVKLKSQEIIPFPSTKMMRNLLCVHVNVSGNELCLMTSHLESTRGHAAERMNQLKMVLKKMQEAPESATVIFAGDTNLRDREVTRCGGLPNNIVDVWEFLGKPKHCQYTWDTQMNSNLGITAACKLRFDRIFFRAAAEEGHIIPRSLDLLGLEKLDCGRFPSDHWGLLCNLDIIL

[15] = HepG2 cell cytotoxicity, dose response, cytotoxicity control, luminescence plate reader, powder samples, set 2 (AID 651860); type: functional, cell-based
[16] = biological target: T1, NAD-dependent protein deacylase sirtuin-5, mitochondrial; experiment: SIRT5 desuccinylase inhibitors, dose response, biochemical, fluorescence imaging, cherry-pick, set 5 (AID 720591);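 note: desuccinylation of succinyl peptide AMC substrate read as fluorescence after trypsin release; potency of inhibitors that lower fluorescence and may act on trypsin instead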
[17] = Late stage counterscreen for inhibitors of Trypanosoma brucei methionyl tRNA synthetase (MetRS): Luminescence-based cell-based high throughput dose response assay to identify compounds that are cytotoxic to Jurkat human T lymphocyte cells.; type: functional
[18] = inhibitors of PGC1a acetylation in cells, dose response, cell-based, cherry-picked samples (AID 720514); type: functional;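 note: potency may reflect raised or lowered acetylation signal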
Kallikrein-7 = Kallikrein-7 (Homo sapiens, UniProt P49862); experiment: Fluorescence Intensity-based biochemical primary high throughput dose response assay to identify activators of kallikrein-7 (K7) zymogen.
Kallikrein-7, sequence (P49862 whole entry): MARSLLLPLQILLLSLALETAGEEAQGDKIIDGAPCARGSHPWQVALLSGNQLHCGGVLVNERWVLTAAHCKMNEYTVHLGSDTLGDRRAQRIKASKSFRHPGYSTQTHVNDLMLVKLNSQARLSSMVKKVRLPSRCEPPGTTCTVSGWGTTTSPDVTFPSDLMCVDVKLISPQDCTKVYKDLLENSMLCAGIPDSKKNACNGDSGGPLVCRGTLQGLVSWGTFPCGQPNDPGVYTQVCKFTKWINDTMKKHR

[19] = Late-stage results from the probe development effort to identify antagonists of arginine vasopressin receptor 1a (AVPR1a): fluorescence-based cell-based dose response OXTR inhibition counterscreen assay.; type: functional
Vasopressin V2 receptor = Vasopressin V2 receptor (Homo sapiens, UniProt P30518); experiment: Late-stage results from the probe development effort to identify antagonists of arginine vasopressin receptor 1a (AVPR1a): fluorescence-based cell-based dose response AVPR2 inhibition counterscreen assay.; type: functional
Vasopressin V2 receptor, sequence (P30518 whole entry): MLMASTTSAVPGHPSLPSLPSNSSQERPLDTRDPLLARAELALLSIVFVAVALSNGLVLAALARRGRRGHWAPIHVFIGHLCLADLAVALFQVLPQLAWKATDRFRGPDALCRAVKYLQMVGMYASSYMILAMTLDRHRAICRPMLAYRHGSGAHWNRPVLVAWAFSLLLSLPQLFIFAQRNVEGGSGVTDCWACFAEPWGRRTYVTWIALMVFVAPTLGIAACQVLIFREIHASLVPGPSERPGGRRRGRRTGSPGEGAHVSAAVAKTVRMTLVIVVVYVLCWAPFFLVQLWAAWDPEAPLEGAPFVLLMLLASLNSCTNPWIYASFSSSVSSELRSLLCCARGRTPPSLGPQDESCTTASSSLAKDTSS

Vasopressin V1b receptor = Vasopressin V1b receptor (Homo sapiens, UniProt P47901); experiment: Late-stage results from the probe development effort to identify antagonists of arginine vasopressin receptor 1a (AVPR1a): fluorescence-based cell-based dose response AVPR1b inhibition counterscreen assay.; type: functional
Vasopressin V1b receptor, sequence (P47901 whole entry): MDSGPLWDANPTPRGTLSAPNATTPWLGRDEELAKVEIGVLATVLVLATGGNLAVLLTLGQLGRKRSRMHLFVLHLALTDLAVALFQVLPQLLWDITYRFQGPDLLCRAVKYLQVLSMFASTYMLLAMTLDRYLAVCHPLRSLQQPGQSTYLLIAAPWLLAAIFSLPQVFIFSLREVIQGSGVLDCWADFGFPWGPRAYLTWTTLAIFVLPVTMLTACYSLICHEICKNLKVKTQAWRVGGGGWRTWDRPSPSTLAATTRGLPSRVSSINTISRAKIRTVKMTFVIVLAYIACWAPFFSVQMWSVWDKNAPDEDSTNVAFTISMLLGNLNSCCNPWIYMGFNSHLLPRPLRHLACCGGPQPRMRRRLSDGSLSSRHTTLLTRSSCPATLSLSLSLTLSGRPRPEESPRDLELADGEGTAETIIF

[20] = Late-stage results from the probe development effort to identify antagonists of arginine vasopressin receptor 1a (AVPR1a): fluorescence-based cell-based dose response AVPR1a inhibition assay.; type: functional

T1 sequence (Q9NXA8 whole entry): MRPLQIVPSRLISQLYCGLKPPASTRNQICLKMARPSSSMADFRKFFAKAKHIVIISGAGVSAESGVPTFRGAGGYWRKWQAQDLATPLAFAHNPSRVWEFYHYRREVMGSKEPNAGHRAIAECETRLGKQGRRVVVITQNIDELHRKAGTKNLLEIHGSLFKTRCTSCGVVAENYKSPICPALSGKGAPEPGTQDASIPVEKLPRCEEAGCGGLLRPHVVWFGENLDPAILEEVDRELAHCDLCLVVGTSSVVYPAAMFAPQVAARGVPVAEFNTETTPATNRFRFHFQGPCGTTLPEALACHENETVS

C[C@@H]1CN([C@H](C)CO)C(=O)CCCn2nncc2CO[C@H]1CN(C)S(=O)(=O)c1ccc(Cl)cc1
AC50 [1]: 26.7 µM (active)

Cc1ccc(CNC(=O)c2cc3c(=O)n4ccccc4nc3n(Cc3ccco3)c2=N)cc1
IC50 [2]: 17.3 µM (active)

CC(Oc1ccc(F)cc1)C(=O)N(CCC1=CCCCC1)c1c(N)n(Cc2ccccc2)c(=O)[nH]c1=O (stereo unspecified)
AC50 [3]: 7.99 µM (active)
AC50 [4]: 22.6 µM (active)

O=C1C(NS(=O)(=O)c2cccs2)=C(N2CCCCC2)C(=O)c2ccccc21
AC50 [5]: > 70 µM (inactive)
AC50 [6]: > 70 µM (inactive)

CC(C)N(C)C(=O)c1cccc(NC(=O)c2ccncc2)c1OCCCN(C)Cc1ccc(Oc2ccccc2)cc1
IC50 [7]: 10.1 µM (inconclusive)
AC50 [8]: 386 nM (active)
AC50 [9]: 381 nM (active)

NC1=C(Cl)C(=O)c2ccc(S(N)(=O)=O)cc2C1=O
EC50 (Hexokinase-1): 1.06 µM (active)
EC50 (Hexokinase HKDC1): > 80 µM (inactive)
IC50 [10]: > 122 µM (inactive)
AC50 (Paired box protein Pax-8): 1.47 µM (active)
AC50 [11]: 144 nM (active)
IC50 [12]: > 122 µM (inactive)
AC50 [13]: 8.31 µM (active)
IC50 [14]: 1.07 µM (active)

NC(=O)[C@H]1CCCC[C@H]1C(=O)N1CCc2ccccc2[C@H]1CN1C(=O)c2ccccc2C1=O
AC50 [15]: > 52 µM (inactive)

COc1ccc(CN2C(=O)C(CC(=O)NCCc3ccccn3)CC(C(=O)N3CCOCC3)=C2C)cc1 (stereo unspecified)
AC50 [16]: > 30 µM (inactive)

CC(CC(=O)Nc1cccc(Br)c1)=NNC(=O)c1ccc(O)cc1O
IC50 [17]: > 83.3 µM (inactive)

CC(C)NC(=O)Nc1ccc2c(c1)C(=O)N([C@@H](C)CO)C[C@H](C)[C@@H](CN(C)C(=O)CCC(F)(F)F)OCCCC[C@@H](C)O2
AC50 [18]: 38 µM (active)

CC(=O)Nc1ccc2[nH]c(-c3cccs3)nc2c1
EC50 (Kallikrein-7): 8.78 µM (active)

Cc1ccc(N(CC2CC2)C(=O)N2CCN(c3ccccc3C)CC2)cc1
IC50 [19]: 82 nM (active)
IC50 (Vasopressin V2 receptor): 2.22 µM (active)
IC50 (Vasopressin V1b receptor): 17.6 µM (inactive)
IC50 [20]: 6.9 nM (active)

— ChEMBL document CHEMBL1201862, “PubChem BioAssay data set” (2004)
